Source: patent US9340500B2, “Aromatic heterocyclic derivative having TRPV4-inhibiting activity” (SHIONOGI & CO., LTD., priority 2011, dated 2016)
Converted amounts (≈) assume the structure as drawn.

Columns and labels:
Solubility test = type: physicochemical; conditions: artificial intestinal juice (phosphate buffer) with 1% DMSO, fassgf or other biorelevant, kinetic from dmso stock, artificial intestinal juice pH 6.8, 16 hours at 25° C.
Method in brief: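 A DMSO stock was added to artificial intestinal juice at pH 6.8, giving 1% DMSO. The mixture stood 16 hours at 25° C. and was vacuum-filtered. Dissolved compound in the filtrate was quantified by HPLC or LC/MS/MS using absolute calibration.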

[1] = Metabolism stability test; type: in vitro ADME; conditions: human liver microsomes, 30 minutes, compound concentration 2 μmol/L
Description: Using a commercially available pooled human hepatic microsomes, a test compound was reacted for a constant time, a remaining rate was calculated by comparing a reacted sample and an unreacted sample, thereby, a degree of metabolism in liver was assessed.
A reaction was performed (oxidative reaction) at 37° C. for 0 minute or 30 minutes in the presence of 1 mmol/L NADPH in 0.2 mL of a buffer (50 mmol/L Tris-HCl pH 7.4, 150 mmol/L potassium chloride, 10 mmol/L magnesium chloride) containing 0.5 mg protein/mL of human liver microsomes. After the reaction, 50 μL of the reaction mixture was added to 100 μL of a methanol/acetonitrile=1/1 (v/v), mixed and centrifuged at 3000 rpm for 15 minutes. The test compound in the supernatant was quantified by LC/MS/MS, and a remaining amount of the test compound after the reaction was calculated, letting a compound amount at 0 minute reaction time to be 100%. Hydrolysis reaction was performed in the absence of NADPH and glucuronidation reaction was in the presence of 5 mM UDP-glucuronic acid in place of NADPH, followed by similar operations.

[2] = target: human ether-a-go-go related gene (hERG) channel (Homo sapiens (Human), UniProt Q12809); test: hERG test (whole cell patch clamp, IKr); type: cell-based; conditions: 1 μmol/L of test compound, HEK293 cells expressing hERG
From the text: For the purpose of assessing risk of an electrocardiogram QT interval prolongation, effects on delayed rectifier K^+ current (IKr), which plays an important role in the ventricular repolarization process, was studied using HEK293 cells expressing human ether-a-go-go related gene (hERG) channel.
After a cell was retained at a membrane potential of −80 mV by whole cell patch clamp method using an automated patch clamp system (PatchXpress 7000A, Axon Instruments Inc.), IKr induced by depolarization pulse stimulation at +40 mV for 2 seconds and, further, repolarization pulse stimulation at −50 mV for 2 seconds was recorded. […] From the recording IKr, an absolute value of the tail peak current was measured based on the current value at the resting membrane potential using an analysis software (DataXpress ver. 1, Molecular Devices Corporation). Further, the % inhibition relative to the tail peak current before application of the test substance was calculated, and compared with the vehicle-applied group (0.1% dimethyl sulfoxide solution) to assess influence of the test substance on IKr.

Chain of human ether-a-go-go related gene (hERG) channel (Q12809 whole entry): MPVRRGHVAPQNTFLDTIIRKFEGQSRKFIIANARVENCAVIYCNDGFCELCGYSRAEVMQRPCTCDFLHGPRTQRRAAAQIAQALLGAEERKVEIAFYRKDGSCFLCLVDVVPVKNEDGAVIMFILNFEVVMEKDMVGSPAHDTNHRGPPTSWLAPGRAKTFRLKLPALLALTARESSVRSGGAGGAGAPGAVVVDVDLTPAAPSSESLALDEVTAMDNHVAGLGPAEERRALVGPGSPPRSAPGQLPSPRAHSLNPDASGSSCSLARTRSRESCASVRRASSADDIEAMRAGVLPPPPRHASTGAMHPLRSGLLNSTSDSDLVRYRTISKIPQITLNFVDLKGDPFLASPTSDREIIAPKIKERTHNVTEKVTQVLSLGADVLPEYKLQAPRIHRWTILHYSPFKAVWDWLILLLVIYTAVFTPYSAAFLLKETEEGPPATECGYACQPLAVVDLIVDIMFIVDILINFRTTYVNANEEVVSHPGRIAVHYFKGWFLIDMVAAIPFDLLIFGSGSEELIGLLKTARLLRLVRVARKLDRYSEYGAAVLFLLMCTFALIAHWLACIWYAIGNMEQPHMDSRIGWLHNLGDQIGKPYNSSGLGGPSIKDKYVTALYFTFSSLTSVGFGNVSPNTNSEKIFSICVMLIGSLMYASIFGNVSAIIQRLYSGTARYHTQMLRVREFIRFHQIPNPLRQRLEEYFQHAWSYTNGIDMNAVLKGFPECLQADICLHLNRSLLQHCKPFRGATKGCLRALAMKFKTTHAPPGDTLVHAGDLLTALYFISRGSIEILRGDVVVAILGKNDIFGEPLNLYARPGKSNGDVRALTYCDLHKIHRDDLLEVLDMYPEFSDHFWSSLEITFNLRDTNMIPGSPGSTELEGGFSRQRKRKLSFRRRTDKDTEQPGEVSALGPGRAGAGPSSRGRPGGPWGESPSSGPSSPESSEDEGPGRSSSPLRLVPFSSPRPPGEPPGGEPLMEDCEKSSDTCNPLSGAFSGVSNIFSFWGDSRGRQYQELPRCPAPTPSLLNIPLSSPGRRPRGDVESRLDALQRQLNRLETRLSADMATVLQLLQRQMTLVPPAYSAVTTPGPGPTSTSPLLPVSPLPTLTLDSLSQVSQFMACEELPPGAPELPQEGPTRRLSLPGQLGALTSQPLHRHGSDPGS

| SMILES | solubility at 16 h (Solubility test) [µM] | remaining rate (metabolism stability) [1] [%] | hERG % inhibition [2] [%] |
| --- | --- | --- | --- |
| Cc1c(C(=O)Nc2cccc(C(F)(F)F)c2)ccn1CCCN1CCOCC1 [Compound I-007] | > 50 | 85 |  |
| Cc1c(C(=O)Nc2cccc(C(F)(F)F)c2)cc(-c2ccccc2)n1CCCN(C)C [Compound I-018] | > 50 | 70.6 |  |
| Cc1c(C(=O)Nc2cccc(C(F)(F)F)c2)cc(-c2ccccc2)n1CCCNS(C)(=O)=O [Compound I-026] | 10.1 (≈ 4.84 µg/mL) |  | 11.7 |
